Where two headings read alike, the source gives them in different places.
How the values were obtained:
Type in all cases: biochemical
Cdc25A = target: T1, Cdc25A (Homo sapiens, UniProt P30304); assay: Cdc25A phosphatase inhibition screen at 50 μM; conditions: read-out: Percent Inhibition at 50 uM compound, Cdc25 A
T1 sequence (P30304 1-524): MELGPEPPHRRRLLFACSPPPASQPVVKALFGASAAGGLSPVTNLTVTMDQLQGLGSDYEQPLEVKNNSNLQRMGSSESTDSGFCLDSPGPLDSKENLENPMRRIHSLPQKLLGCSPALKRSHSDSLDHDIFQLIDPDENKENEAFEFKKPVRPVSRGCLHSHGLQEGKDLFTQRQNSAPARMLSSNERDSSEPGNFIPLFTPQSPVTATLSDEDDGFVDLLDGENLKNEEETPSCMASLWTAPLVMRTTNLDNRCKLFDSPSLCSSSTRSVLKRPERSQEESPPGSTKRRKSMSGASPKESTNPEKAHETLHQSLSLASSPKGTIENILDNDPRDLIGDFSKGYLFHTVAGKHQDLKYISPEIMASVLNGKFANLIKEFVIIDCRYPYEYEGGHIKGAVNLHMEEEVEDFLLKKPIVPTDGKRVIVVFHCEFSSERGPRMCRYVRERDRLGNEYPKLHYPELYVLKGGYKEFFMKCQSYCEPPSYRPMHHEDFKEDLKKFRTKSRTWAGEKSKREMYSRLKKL
Experimental: (§1) Using procedures known to those skilled in the art, the compounds listed in Table 3 were screened against Cdc25A, Cdc25B, and Cdc25C at 50 μM. […] To analyze these effects further, the compounds were then screened against Cdc25B in a 3 pt. IC-50, using 1, 7 and 50 μM. Several of the compounds were also screened with an 8 pt. IC-50 process, using 0.1–10 μM, allowing determination of Hill slopes.

Cdc25B = target: T2, Cdc25B (Homo sapiens, UniProt P30305); assay: Cdc25B phosphatase inhibition (50 μM screen, 3 pt. and 8 pt. IC-50); conditions: for IC50: Cdc25B; for inhibition at 50 µM: read-out: Percent Inhibition at 50 uM compound, Cdc25 B
T2 sequence (P30305 1-580): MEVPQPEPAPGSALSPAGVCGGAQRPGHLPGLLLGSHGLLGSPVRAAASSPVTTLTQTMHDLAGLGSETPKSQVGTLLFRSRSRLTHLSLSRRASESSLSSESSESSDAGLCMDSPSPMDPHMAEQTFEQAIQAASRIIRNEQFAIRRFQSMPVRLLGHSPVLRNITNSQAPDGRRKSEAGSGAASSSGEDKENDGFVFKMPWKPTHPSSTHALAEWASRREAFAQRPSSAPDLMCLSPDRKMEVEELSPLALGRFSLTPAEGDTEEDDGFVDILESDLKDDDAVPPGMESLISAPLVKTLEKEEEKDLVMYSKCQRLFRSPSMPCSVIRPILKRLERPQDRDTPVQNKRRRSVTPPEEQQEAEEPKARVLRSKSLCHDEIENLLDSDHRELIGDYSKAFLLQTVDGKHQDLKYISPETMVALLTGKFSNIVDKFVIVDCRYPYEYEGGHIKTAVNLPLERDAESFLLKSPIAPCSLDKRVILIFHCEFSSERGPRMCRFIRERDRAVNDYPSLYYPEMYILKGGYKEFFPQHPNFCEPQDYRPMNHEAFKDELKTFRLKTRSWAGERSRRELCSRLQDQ
Experimental: as §1

Cdc25C = target: T3, Cdc25C (Homo sapiens, UniProt P30307); assay: Cdc25C phosphatase inhibition screen at 50 μM; conditions: read-out: Percent Inhibition at 50 uM compound, Cdc25 C
T3 sequence (P30307 1-473): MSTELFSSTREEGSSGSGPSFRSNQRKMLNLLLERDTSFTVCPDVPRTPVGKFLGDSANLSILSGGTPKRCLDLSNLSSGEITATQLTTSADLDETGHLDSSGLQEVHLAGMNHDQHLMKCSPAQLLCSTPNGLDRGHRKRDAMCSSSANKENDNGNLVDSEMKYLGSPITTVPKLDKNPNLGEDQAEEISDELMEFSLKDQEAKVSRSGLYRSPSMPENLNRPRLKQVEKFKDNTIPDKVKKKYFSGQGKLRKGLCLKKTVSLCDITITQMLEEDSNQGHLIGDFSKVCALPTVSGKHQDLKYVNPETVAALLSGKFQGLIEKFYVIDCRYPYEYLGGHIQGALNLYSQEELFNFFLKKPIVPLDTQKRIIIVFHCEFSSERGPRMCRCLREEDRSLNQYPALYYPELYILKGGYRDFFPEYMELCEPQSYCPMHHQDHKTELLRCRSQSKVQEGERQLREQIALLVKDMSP
Experimental: as §1

[1] = 3 pt. IC-50 using 1, 7 and 50 μM, read-out: IC50 (3 pt)
[2] = 8 pt. IC-50 using 0.1–10 μM, read-out: IC50 (8 pt)

SMILES	inhibition at 50 µM (Cdc25A)	IC50 (Cdc25B; [1])	IC50 (Cdc25B; [2])	inhibition at 50 µM (Cdc25B)	inhibition at 50 µM (Cdc25C)
CC(C)=CCCC(C)=CCCC(C)=CCc1cccc2c(C3=C(O)C(=O)C=C(O)C3=O)c[nH]c12 [6D, 2,5-dihydroxy-3-(7-farnecyl-1H-indol-3-yl)-[1,4]-benzoquinone]	86%	0.1 µM	0.5 µM	89%	85%
O=C1C=C(O)C(=O)C(c2c[nH]c3c(Cc4ccccc4)cccc23)=C1O [6E, 2,5-dihydroxy-3-(7-benzyl-1H-indol-3-yl)-[1,4]-benzoquinone]	98%	1.7 µM		97%	98%
O=C1C=C(O)C(=O)C(c2c[nH]c3cccc(F)c23)=C1O [3D, 2,5-dihydroxy-3-(4-fluoro-1H-indol-3-yl)-[1,4]-benzoquinone]	59%	1.2 µM	15.9 µM	5%	0%
CC(C)(C)c1cccc2c(C3=C(O)C(=O)C=C(O)C3=O)c[nH]c12 [6G, 2,5-dihydroxy-3-(7-tert-butyl-1H-indol-3-yl)-[1,4]-benzoquinone]	96%	2.1 µM		33%	37%
Cc1[nH]c2c(C)cccc2c1C1=C(O)C(=O)C=C(O)C1=O [7G, 2,5-dihydroxy-3-(2,7-dimethyl-1H-indol-3-yl)-[1,4]-benzoquinone]	20%	38.5 µM		0%	0%
Cc1[nH]c2ccc(Cl)cc2c1C1=C(O)C(=O)C=C(O)C1=O [7E, 2,5-dihydroxy-3-(2-methyl-5-chloro-1H-indol-3-yl)-[1,4]-benzoquinone]	91%	52.2 µM		60%	81%
O=C1C=C(O)C(=O)C(c2c[nH]c3cc(F)ccc23)=C1O [5A, 2,5-dihydroxy-3-(6-fluoro-1H-indol-3-yl)-[1,4]-benzoquinone]	91%	2 µM	6.8 µM	48%	90%
COc1ccc2[nH]cc(C3=C(O)C(=O)C=C(O)C3=O)c2c1 [4F, 2,5-dihydroxy-3-(5-methoxy-1H-indol-3-yl)-[1,4]-benzoquinone]	15%	6 µM		0%	0%
Cc1ccc2[nH]c(C)c(C3=C(O)C(=O)C=C(O)C3=O)c2c1 [7C, 2,5-dihydroxy-3-(2,5-dimethyl-1H-indol-3-yl)-[1,4]-benzoquinone]	61%	16.5 µM		20%	25%
O=C1C=C(O)C(=O)C(c2c[nH]c3ccc(OCc4ccccc4)cc23)=C1O [4G, 2,5-dihydroxy-3-(5-benzyloxy-1H-indol-3-yl)-[1,4]-benzoquinone]	96%	1.8 µM		50%	26%
O=C1C=C(O)C(=O)C(c2c[nH]c3cccc(Cl)c23)=C1O [3E, 2,5-dihydroxy-3-(4-chloro-1H-indol-3-yl)-[1,4]-benzoquinone]	67%	3 µM	8.4 µM	21%	0%
COC1=CC(=O)C(OC)=C(c2c[nH]c3c(F)cccc23)C1=O [5E, 2,5-dimethoxy-3-(7-fluoro-1H-indol-3-yl)-[1,4]-benzoquinone]	29%	125 µM		67%	68%
CCc1[nH]c2ccccc2c1C1=C(O)C(=O)C=C(O)C1=O [2D, 2,5-dihydroxy-3-(2-ethyl-1H-indol-3-yl)-[1,4]-benzoquinone]	51%	33.4 µM		36%	14%
O=C1C=C(O)C(=O)C(c2c[nH]c3ccc(F)cc23)=C1O [4B, 2,5-dihydroxy-3-(5-fluoro-1H-indol-3-yl)-[1,4]-benzoquinone]	64%	11.7 µM		32%	23%
O=C1C=C(O)C(=O)C(c2c[nH]c3cccc(Br)c23)=C1O [3F, 2,5-dihydroxy-3-(4-bromo-1H-indol-3-yl)-[1,4]-benzoquinone]	0%	3.1 µM	> 2 µM	6%	54%
O=C1C=C(O)C(=O)C(c2c[nH]c3ccccc23)=C1O [2A, 2,5-dihydroxy-3(1H-indol-3-yl)-[1,4]-benzoquinone]	55%	14.2 µM	16.5 µM	75%	69%
Cc1ccccc1Cc1cccc2c(C3=C(O)C(=O)C=C(O)C3=O)c[nH]c12 [6F, 2,5-dihydroxy-3-[7-(2-methyl-benzyl)-1H-indol-3-yl]-[1,4]-benzoquinone]	90%	0.6 µM	1.1 µM	97%	94%
O=C1C=C(O)C(=O)C(c2c[nH]c3c(Br)cccc23)=C1O [5G, 2,5-dihydroxy-3-(7-bromo-1H-indol-3-yl)-[1,4]-benzoquinone]	93%	2.1 µM		45%	88%
Cc1ccc2c(C3=C(O)C(=O)C=C(O)C3=O)c[nH]c2c1 [5D, 2,5-dihydroxy-3-(6-methyl-1H-indol-3-yl)-[1,4]-benzoquinone]	80%	32.3 µM		16%	28%
O=C1C=C(O)C(=O)C(c2c[nH]c3cc4c(cc23)OCO4)=C1O [7H, 2,5-dihydroxy-3-(5,6-methylenedioxy-1H-indol-3-yl)-[1,4]-benzoquinone]	96%	3.7 µM		88%	63%
O=C1C=C(O)C(=O)C(c2c(C3CC3)[nH]c3ccccc23)=C1O [2E, 2,5-dihydroxy-3-(2-cyclopropyl-1H-indol-3-yl)-[1,4]-benzoquinone]	79%	2.3 µM	24.4 µM	32%	0%
CC1(c2[nH]c3ccccc3c2C2=C(O)C(=O)C=C(O)C2=O)CCCCC1 [3A, 2,5-dihydroxy-3-[2-(1-methylcyclohexyl)-1H-indol-3-yl]-[1,4]-benzoquinone]	69%	82.9 µM		11%	22%
COc1cccc2[nH]cc(C3=C(O)C(=O)C=C(O)C3=O)c12 [3G, 2,5-dihydroxy-3-(4-methoxy-1H-indol-3-yl)-[1,4]-benzoquinone]	77%	7.2 µM		21%	19%
Cc1cccc2c(C3=C(O)C(=O)C=C(O)C3=O)c[nH]c12 [5H, 2,5-dihydroxy-3-(7-methyl-1H-indol-3-yl)-[1,4]-benzoquinone]	60%	4.2 µM		0%	1%
